The target of one experiment is T1, IRAK4 enzyme (Homo sapiens, UniProt Q9NWZ3).
T1 construct: purchased Promega V2621
T1 sequence (Q9NWZ3 1-460): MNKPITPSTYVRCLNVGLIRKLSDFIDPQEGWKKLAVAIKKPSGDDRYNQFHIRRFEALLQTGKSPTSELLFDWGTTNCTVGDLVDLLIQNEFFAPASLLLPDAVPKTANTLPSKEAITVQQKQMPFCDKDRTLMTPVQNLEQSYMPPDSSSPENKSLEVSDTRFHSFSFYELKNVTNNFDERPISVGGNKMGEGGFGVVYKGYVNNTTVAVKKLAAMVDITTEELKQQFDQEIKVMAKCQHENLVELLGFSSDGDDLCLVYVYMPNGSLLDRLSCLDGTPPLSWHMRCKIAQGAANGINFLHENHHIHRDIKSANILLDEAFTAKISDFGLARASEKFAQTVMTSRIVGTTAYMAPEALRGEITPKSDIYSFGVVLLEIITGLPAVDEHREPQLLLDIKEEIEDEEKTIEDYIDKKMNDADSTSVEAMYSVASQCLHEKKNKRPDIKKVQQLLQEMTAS
Nature of the experiment: IRAK4 enzyme activity inhibition (ADP-Glo, Promega kit). Conditions: for inhibition at 0.1 µM: test compound 0.1 uM; for inhibition at 1 µM: test compound 1 uM. The format is biochemical. Here is the method:
An experiment on IRAK4 enzyme activity inhibition of the compound of the present invention was conducted.
An IRAK4 enzyme kit (purchased from Promega, product number: V2621) was used to dilute a mixed solution between 0.1 µg/µL of myelin basic protein (MBP), which is an enzyme-reactive substrate, and 1.25 mM of ATP with a reaction buffer (40 mM Tris-HCl, pH 7.5; 20 mM MgCl2; 0.1 mg/mL BSA; 50 µM DTT) according to the instructions, so as to dispense 2 µL in a 384-well white plate, and then to add 1 µL of a test compound, which was gradient diluted starting from 1 mM, to a 384-well plate. After that, an IRAK4 enzyme was diluted with a reaction buffer to a final concentration of 5 ng/µL, then 2 µL/well was dispensed into a 384-well white plate and reacted at 37°C for 60 minutes. After completion of a reaction, an ADP-GloTM enzyme test kit (purchased from Promega, product number: V9102) was used to add 5 µL of ADP-Glo reaction reagent and cause a reaction at 37°C for 40 minutes, and then 10 µL of enzyme chromogenic reagent was added again to measure a luminescence signal using equipment for measuring absorbance (THECAN, Microplate Reader). An activity inhibition rate was calculated from a measured value, and a 50% inhibition concentration (IC50 value) was analyzed through a non-linear regression analysis based on the % inhibition for each concentration of the test compound, and is shown in Table 2.
Background: ADP-Glo turns the ADP formed in a reaction into a luminescent signal.

A further experiment has as its target T2, IRAK1 enzyme (Homo sapiens, UniProt P51617).
T2 construct: purchased Promega VA7477
Briefly: IRAK1 enzyme activity inhibition (ADP-Glo, Promega kit). Conditions: for inhibition at 0.1 µM: test compound 0.1 uM; for inhibition at 1 µM: test compound 1 uM. The format is biochemical. Here is the method: An experiment on IRAK1 enzyme activity inhibition of the compound of the present invention was conducted.
An IRAK1 enzyme kit (purchased from Promega, product number: VA7477) was used to dilute a mixed solution between 0.1 µg/µL of protein kinase B (AKT), which is an enzyme-reactive substrate, and 1.25 mM of ATP with a reaction buffer (40 mM Tris-HCl, pH 7.5; 20 mM MgCl2; 0.1 mg/mL BSA; 50 µM DTT) according to the instructions, so as to dispense 2 µL in a 384-well white plate, and then to add 1 µL of a test compound, which was gradient diluted starting from 1 mM, to a 384-well white plate. After that, an IRAK1 enzyme was diluted with a reaction buffer to a final concentration of 5 ng/µL, then 2 µL/well was dispensed into a 384-well white plate and reacted at 37°C for 60 minutes. After completion of a reaction, an ADP-GloTM enzyme test kit (purchased from Promega, product number: V9102) was used to add 5 µL of ADP-Glo reaction reagent and cause a reaction at 37°C for 40 minutes, and then 10 µL of enzyme chromogenic reagent was added again to measure a luminescence signal using equipment for measuring absorbance (THECAN, Microplate Reader). An activity inhibition rate was calculated from a measured value, and a 50% inhibition concentration (IC50 value) was analyzed through a non-linear regression analysis based on the % inhibition for each concentration of the test compound, and is shown in Table 3.

T2 sequence (P51617 whole entry): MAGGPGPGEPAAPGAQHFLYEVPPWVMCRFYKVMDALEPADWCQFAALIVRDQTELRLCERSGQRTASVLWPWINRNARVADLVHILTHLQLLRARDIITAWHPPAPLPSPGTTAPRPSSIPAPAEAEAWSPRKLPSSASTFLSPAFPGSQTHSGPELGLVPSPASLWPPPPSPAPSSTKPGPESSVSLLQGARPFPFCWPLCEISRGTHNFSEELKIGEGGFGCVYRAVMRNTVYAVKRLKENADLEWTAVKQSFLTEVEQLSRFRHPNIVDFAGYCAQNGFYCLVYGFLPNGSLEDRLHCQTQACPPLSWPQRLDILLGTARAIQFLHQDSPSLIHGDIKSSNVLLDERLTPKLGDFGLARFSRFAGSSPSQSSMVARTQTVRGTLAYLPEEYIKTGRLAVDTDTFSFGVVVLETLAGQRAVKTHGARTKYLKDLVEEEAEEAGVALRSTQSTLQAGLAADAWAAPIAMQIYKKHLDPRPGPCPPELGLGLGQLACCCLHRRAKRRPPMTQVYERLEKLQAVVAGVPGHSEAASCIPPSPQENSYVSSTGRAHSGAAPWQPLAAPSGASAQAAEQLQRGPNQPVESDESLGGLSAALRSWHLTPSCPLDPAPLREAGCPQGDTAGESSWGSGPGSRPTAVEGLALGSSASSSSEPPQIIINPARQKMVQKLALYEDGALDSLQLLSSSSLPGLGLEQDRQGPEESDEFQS

In the case of `CC(C)(O)CCn1cc2cc(NC(=O)c3cccc(C(N)=O)c3)c(N3CCOCC3)cc2n1` [Example 25, N-(2-(3-hydroxy-3-methylbutyl)-6-morpholino-2H-indazol-5-yl)isophthalamide], on IRAK4 enzyme, the IC50 (in general, the concentration that inhibits the measured activity by half) was 78.5 nM and 0.1 µM produced 81.3% inhibition. Further, on IRAK1 enzyme, at 0.1 µM the inhibition was 24.9% and the inhibition (in general, the drop in the measured response relative to a control, in per cent) at 1 µM came out at 54.6%.

For `CC(C)(O)CCn1cc2cc(NC(=O)c3ccc(F)c([N+](=O)[O-])c3)c(N3CCOCC3)cc2n1` [Example 26, 4-fluoro-N-(2-(3-hydroxy-3-methylbutyl)-6-morpholino-2H-indazol-5-yl)-3-nitrobenzamide], at IRAK4 enzyme, half-maximal inhibition (IC50) required 192 nM and the inhibition at 0.1 µM was found to be 71.3%. At IRAK1 enzyme, this compound had an inhibition at 0.1 µM of 31.7% and an inhibition at 1 µM of 40.2%.

For the compound `CC(C)(O)CCn1cc2cc(NC(=O)c3cccc(-c4nccs4)c3)c(N3CCOCC3)cc2n1` [Example 27, N-(2-(3-hydroxy-3-methylbutyl)-6-morpholino-2H-indazol-5-yl)-3-(thiazol-2-yl)benzamide], the inhibition at 0.1 µM at IRAK4 enzyme came to 57.3%; against IRAK1 enzyme, 17.6%. Further, the inhibition at 1 µM against IRAK1 enzyme was 25.3%.

As to `CC(C)(O)CCn1cc2cc(NC(=O)c3cccc([N+](=O)[O-])c3)c(N3CCC(C(C)(C)O)CC3)cc2n1` [Example 30, N-(2-(3-hydroxy-3-methylbutyl)-6-(4-(2-hydroxypropan-2-yl)piperidin-1-yl)-2H-indazol-5-yl)-3-nitrobenzamide], on IRAK4 enzyme, 0.88 nM corresponded to half-maximal inhibition (IC50) and the inhibition at 0.1 µM was 82.8%. The same compound yielded an inhibition at 0.1 µM against IRAK1 enzyme of 8.6%.

Turning to `CC(C)(O)CCn1cc2cc(NC(=O)c3cccc(S(N)(=O)=O)c3)c(N3CCC(O)CC3)cc2n1` [Example 31, N-(2-(3-hydroxy-3-methylbutyl)-6-(4-hydroxypiperidin-1-yl)-2H-indazol-5-yl)-3-sulfamoylbenzamide], at IRAK4 enzyme, the IC50 is 13.4 nM and the inhibition at 0.1 µM was 88%. At IRAK1 enzyme, this compound showed an inhibition at 0.1 µM of 30.6% and an inhibition at 1 µM of 66.7%.

`CC(C)(O)CCn1cc2cc(NC(=O)c3cccc(C(N)=O)c3)c(N3CCSCC3)cc2n1` [Example 33, N-(2-(3-hydroxy-3-methylbutyl)-6-thiomorpholino-2H-indazol-5-yl)isophthalamide]: on IRAK4 enzyme, the IC50 came out at 22.1 nM, 0.1 µM produced 71.3% inhibition and the inhibition at 1 µM came out at 95.6%. Besides, on IRAK1 enzyme, the inhibition at 0.1 µM was found to be 24% and the inhibition at 1 µM is 39.3%.

For the compound `O=C(Nc1cc2cn(CCN3CCOCC3)nc2cc1-c1ccc(F)cc1)c1cccc([N+](=O)[O-])c1` [Example 34, N-(6-(4-fluorophenyl)-2-(2-morpholinoethyl)-2H-indazol-5-yl)-3-nitrobenzamide], the results for the inhibition at 0.1 µM against IRAK4 enzyme and against IRAK1 enzyme were 69.4% and 4.6%, respectively. Also, the values for the inhibition at 1 µM against IRAK4 enzyme and against IRAK1 enzyme were 88.2% and 17.4%, respectively.

Turning to `CC(C)(O)CCn1cc2cc(NC(=O)c3cccc([N+](=O)[O-])c3)c(-c3cccc(C(=O)N4CCOCC4)c3)cc2n1` [Example 35, N-(2-(3-hydroxy-3-methylbutyl)-6-(3-(morpholine-4-carbonyl)phenyl)-2H-indazol-5-yl)-3-nitrobenzamide], the inhibition at 0.1 µM against IRAK4 enzyme was determined as 64.6%; at IRAK1 enzyme it was 33.1%. Besides, testing at 1 µM against IRAK1 enzyme gave an inhibition of 60.8%.

As to `CC(C)(O)CCn1cc2cc(NC(=O)c3cccc(-c4ccsc4)n3)c(N3CCOCC3)cc2n1` [Example 36, N-(2-(3-hydroxy-3-methylbutyl)-6-morpholino-2H-indazol-5-yl)-6-(thiophen-3-yl)picolinamide], the inhibition at 0.1 µM against IRAK4 enzyme is 55.2%. At IRAK1 enzyme, this compound displayed an inhibition at 0.1 µM of 5.7% and an inhibition at 1 µM of 12.9%.

As for `CC(C)(O)CCn1cc2cc(NC(=O)c3cccc([N+](=O)[O-])c3)c(-c3ccc(N4CCOCC4)cc3)cc2n1` [Example 37, N-(2-(3-hydroxy-3-methylbutyl)-6-(4-morpholinophenyl)-2H-indazol-5-yl)-3-nitrobenzamide], the values for the inhibition at 0.1 µM against IRAK4 enzyme and against IRAK1 enzyme were 52.2% and 26.3%, respectively. This compound displayed an inhibition at 1 µM at IRAK1 enzyme of 31%.

`CN(C)c1cc2nn(CCC(C)(C)O)cc2cc1NC(=O)c1cccc([N+](=O)[O-])c1` [Example 38, N-(6-(dimethylamino)-2-(3-hydroxy-3-methylbutyl)-2H-indazol-5-yl)-3-nitrobenzamide] displayed an IC50 against IRAK4 enzyme of 5.1 nM. Moreover, the inhibition at 0.1 µM was 87.9% at IRAK4 enzyme and 4.6% at IRAK1 enzyme.

Consider `CC(C)(O)CCn1cc2cc(NC(=O)c3cccc(S(N)(=O)=O)c3)c(-c3ccc(CN4CCOCC4)cc3)cc2n1` [Example 39, N-(2-(3-hydroxy-3-methylbutyl)-6-(4-(morpholinomethyl)phenyl)-2H-indazol-5-yl)-3-sulfamoylbenzamide], for which, at IRAK4 enzyme, at 0.1 µM the inhibition was 69.7%. In addition, on IRAK1 enzyme, the inhibition at 0.1 µM is 23% and 1 µM produced 35.2% inhibition.

`CC(C)(O)CCn1cc2cc(NC(=O)c3cccc([N+](=O)[O-])c3)c(N3CCSCC3)cc2n1` [Example 40, N-(2-(3-hydroxy-3-methylbutyl)-6-thiomorpholino-2H-indazol-5-yl)-3-nitrobenzamide] came in with an inhibition at 0.1 µM against IRAK4 enzyme of 69.7%. For the same compound, at IRAK1 enzyme, the inhibition at 0.1 µM was determined as 6.5% and the inhibition at 1 µM is 11.2%.

Regarding `CNC(=O)CNC(=O)c1ccc(-c2cc3nn(CCC(C)(C)O)cc3cc2NC(=O)c2cccc([N+](=O)[O-])c2)cc1` [Example 41, N-(2-(3-hydroxy-3-methylbutyl)-6-(4-((2-(methylamino)-2-oxoethyl)carbamoyl)phenyl)-2H-indazol-5-yl)-3-nitrobenzamide], the results for the inhibition at 0.1 µM at IRAK4 enzyme and against IRAK1 enzyme were 69% and 0.4%, respectively.

Turning to `CC(C)(O)CCn1cc2cc(NC(=O)c3cccc([N+](=O)[O-])c3)c(-c3ccc(C(=O)NCC(N)=O)cc3)cc2n1` [Example 43, N-(6-(4-((2-amino-2-oxoethyl)carbamoyl)phenyl)-2-(3-hydroxy-3-methylbutyl)-2H-indazol-5-yl)-3-nitrobenzamide], the values for the inhibition at 0.1 µM at IRAK4 enzyme and at IRAK1 enzyme were 63% and 1.7%, respectively.

On IRAK4 enzyme, `CC(C)(O)Cn1cc2cc(NC(=O)c3cccc([N+](=O)[O-])c3)c(N3CCSCC3)cc2n1` [Example 45, N-(2-(2-hydroxy-2-methylpropyl)-6-thiomorpholino-2H-indazol-5-yl)-3-nitrobenzamide] displayed an inhibition at 0.1 µM of 59.6% and an inhibition at 1 µM of 75%. Moreover, at IRAK1 enzyme, 1 µM produced 0% inhibition.

`CC(C)(O)CCn1cc2cc(NC(=O)c3cccc(S(N)(=O)=O)c3)c(-c3ccc(C(N)=O)cc3)cc2n1` [Example 46, N-(6-(4-carbamoylphenyl)-2-(3-hydroxy-3-methylbutyl)-2H-indazol-5-yl)-3-sulfamoylbenzamide]: the results for the inhibition at 0.1 µM on IRAK4 enzyme and against IRAK1 enzyme were 57.5% and 3.2%, respectively.

`CCOC(=O)[C@H](NC(=O)c1ccc(-c2cc3nn(CCC(C)(C)O)cc3cc2NC(=O)c2cccc(S(N)(=O)=O)c2)cc1)C(C)C` [Example 47, Ethyl (4-(2-(3-hydroxy-3-methylbutyl)-5-(3-sulfamoylbenzamido)-2H-indazol-6-yl)benzoyl)-D-valinate]: the inhibition at 0.1 µM at IRAK4 enzyme was determined as 56.8%; on IRAK1 enzyme, 1.3%.

(Values after EP4737451A1 (Dong Wha Pharm. Co., Ltd., priority 2023, dated 2025).)
